Assay results: patent US9850183B2, “Conjugates derived from non-steroidal anti-inflammatory drugs and methods of use thereof in imaging” (Reiley Pharmaceuticals, Inc., priority 2014, dated 2017)
Read-outs that look alike come from different tables or passages of the source.

Experiments:
[1] = biological target: T1, COX-2 (Mus musculus, UniProt Q05769); assay: Cell-based COX-2 assay (PGE2 in LPS/IFN-g stimulated RAW264.7 cells); settings: RAW264.7 murine macrophages, 1 μg/ml LPS and 10 U/ml IFN-g for 7 h, PGE2 readout
T1 construct: endogenous in cells; host or cells: RAW264.7 murine macrophages, stimulated with LPS and IFN-g
T1 sequence (Q05769 18-604): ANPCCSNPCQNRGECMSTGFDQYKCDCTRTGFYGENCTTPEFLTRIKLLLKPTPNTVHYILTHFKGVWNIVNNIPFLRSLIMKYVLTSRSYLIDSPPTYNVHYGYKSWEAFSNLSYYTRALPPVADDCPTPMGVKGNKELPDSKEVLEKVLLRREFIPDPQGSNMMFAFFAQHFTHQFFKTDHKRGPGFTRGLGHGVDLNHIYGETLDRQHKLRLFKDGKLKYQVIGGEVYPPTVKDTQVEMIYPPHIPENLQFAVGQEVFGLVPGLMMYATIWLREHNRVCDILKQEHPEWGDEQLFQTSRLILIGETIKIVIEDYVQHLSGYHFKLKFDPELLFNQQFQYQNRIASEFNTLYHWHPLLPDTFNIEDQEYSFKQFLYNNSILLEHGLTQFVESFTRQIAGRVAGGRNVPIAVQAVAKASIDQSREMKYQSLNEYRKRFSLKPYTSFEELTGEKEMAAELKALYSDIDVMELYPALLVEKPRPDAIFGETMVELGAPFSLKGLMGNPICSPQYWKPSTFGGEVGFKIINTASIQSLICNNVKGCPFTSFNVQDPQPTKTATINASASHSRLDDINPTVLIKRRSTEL
Experimental: RAW264.7 murine macrophages were obtained from the Cell Bank of Shanghai Institute of Biochemistry and Cell Biology, Chinese Academy of Sciences (Shanghai, China) and cultured in Dulbecco's modified Eagle's medium containing 100 U/ml penicillin and 100 μg/ml streptomycin at 37° C. in 5% CO2.
RAW264.7 cells were plated at a density of 2.5×10^5/ml cells in a 96-well plate with 0.1 ml of culture medium per well and cultured overnight. The cells were pre-incubated for 30 min with various doses of compounds and stimulated for 7 h with 1 μg/ml LPS and 10 U/ml IFN-g. The cell culture supernatants were collected immediately following treatment and centrifuged at 1,000 rpm for 5 min to remove the particulate matter. PGE2 was determined using a Prostaglandin E2 assay kit (catalog no. 62P2APEB; Cisbio Co.,). 10 μL of cell supernatant was transferred to a 384-well low volume plate (e.g. Corning® 3544), 5 μL of PGE2-d2 was added, followed by 5 μL anti-PGE2 Cryptate as a negative control. Replace the standard by 10 μL of diluent and PGE2-d2 by 5 μL of reconstitution buffer, Cal0 (for positive control), replace the standard by 10 μL of diluent. Incubate at 4° C. overnight. After centrifuging at 1,000 rpm for 1 min, the dual fluorescence emissions of 615 and 665 nm with a 320 nm excitation were measured using an Envision plate reader (Perkin Elmer, Shelton, Conn.). The results are expressed as the ratio of 665 nm/615 nm emissions.
(§1) Dose-response curves were generated using XLFit (IDBS, Surrey, UK) or Prism (GraphPad Software, La Jolla, Calif., US) to calculate IC50 values for each compound tested.

[2] = biological target: T2, human COX-2 (Homo sapiens, UniProt P35354); assay: COX-2 enzyme assay (EIA kit, PGF2α readout); assay type: biochemical
T2 construct: purchased Cayman Chemical Co., Ann Arbor, Mich., USA 701080
T2 sequence (P35354 18-604): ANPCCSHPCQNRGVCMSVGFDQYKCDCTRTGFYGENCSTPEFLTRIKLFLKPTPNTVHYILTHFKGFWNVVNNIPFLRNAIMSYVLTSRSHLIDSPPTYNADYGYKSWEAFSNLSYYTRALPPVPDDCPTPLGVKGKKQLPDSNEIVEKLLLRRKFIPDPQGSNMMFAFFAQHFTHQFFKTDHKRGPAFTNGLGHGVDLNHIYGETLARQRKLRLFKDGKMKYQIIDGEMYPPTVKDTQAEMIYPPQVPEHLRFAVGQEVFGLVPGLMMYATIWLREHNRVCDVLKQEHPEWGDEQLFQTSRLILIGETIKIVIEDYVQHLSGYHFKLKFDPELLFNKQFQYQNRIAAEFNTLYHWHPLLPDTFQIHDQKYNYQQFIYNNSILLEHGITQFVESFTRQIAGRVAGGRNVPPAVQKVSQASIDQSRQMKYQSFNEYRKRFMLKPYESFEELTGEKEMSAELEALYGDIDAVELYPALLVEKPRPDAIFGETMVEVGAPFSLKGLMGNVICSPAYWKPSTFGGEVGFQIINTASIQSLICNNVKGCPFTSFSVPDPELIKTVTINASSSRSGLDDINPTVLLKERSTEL
Experimental: (§2) The ability of compounds to inhibit ovine COX-1 and human COX-2 was determined using a commercially available enzyme immunoassay (EIA) kit (catalog no. 701090 (COX-1); 701080 (COX-2) Cayman Chemical Co., Ann Arbor, Mich., USA) according to the manufacturer's protocol. COX catalyzes the first step in the biosynthesis of AA to PGH2. PGF2α, produced from PGH2 by reduction with stannous chloride, was measured by EIA (ACE™ competitive EIA, Cayman Chemical, Ann Arbor, Mich., USA). Briefly, to a series of supplied reaction buffer solutions [960 μl 0.1 M Tris-HCl (pH 8.0) containing 5 mM EDTA and 2 mM phenol] with either COX-1 or COX-2 (10 μl) enzyme in the presence of heme (10 μl), 10 μl of various concentrations of test drug solutions were added. These solutions were incubated for 15 min at 37° C. and subsequently 10 μl AA solution (100 μM) was added. The COX reaction was stopped by the addition of 30 μl stannus chloride after 2 min, mixed immediately, supernatants were 2000 fold diluted. The produced PGF2α was measured by EIA. This assay is based on the competition between PGs and a PG-acetylcholinesterase conjugate (PG tracer) for a limited amount of PG antiserum. The amount of PG tracer that is able to bind to the PG antiserum is inversely proportional to the concentration of PGs in the wells since the concentration of the PG tracer is held at a constant while the concentration of PGs varies. The specific antiserum-PG complex bound to a mouse anti-rabbit IgG that had been previously attached to the well. The plate was washed to remove any unbound reagents and 200 μl Ellman's reagent (5,5′-dithiobis-(2-nitrobenzoic acid), which contains the substrate to acetylcholine esterase, was added to the well. The product of this enzymatic reaction generates a distinct yellow color that absorbs at 406 nm. The intensity of this color, determined by spectrophotometry, is proportional to the amount of PG tracer bound to the well, which is inversely proportional to the amount of PGs present in the well during the incubation. Percent inhibition was calculated by the comparison of the compounds treated to the various control incubations.
as §1

[3] = biological target: T3, ovine COX-1 (Ovis aries, UniProt P05979); assay: biochemical; settings: ovine COX-1 enzyme, EIA; read-out: COX-1 IC50 (μm) enzyme
T3 sequence (P05979 25-600): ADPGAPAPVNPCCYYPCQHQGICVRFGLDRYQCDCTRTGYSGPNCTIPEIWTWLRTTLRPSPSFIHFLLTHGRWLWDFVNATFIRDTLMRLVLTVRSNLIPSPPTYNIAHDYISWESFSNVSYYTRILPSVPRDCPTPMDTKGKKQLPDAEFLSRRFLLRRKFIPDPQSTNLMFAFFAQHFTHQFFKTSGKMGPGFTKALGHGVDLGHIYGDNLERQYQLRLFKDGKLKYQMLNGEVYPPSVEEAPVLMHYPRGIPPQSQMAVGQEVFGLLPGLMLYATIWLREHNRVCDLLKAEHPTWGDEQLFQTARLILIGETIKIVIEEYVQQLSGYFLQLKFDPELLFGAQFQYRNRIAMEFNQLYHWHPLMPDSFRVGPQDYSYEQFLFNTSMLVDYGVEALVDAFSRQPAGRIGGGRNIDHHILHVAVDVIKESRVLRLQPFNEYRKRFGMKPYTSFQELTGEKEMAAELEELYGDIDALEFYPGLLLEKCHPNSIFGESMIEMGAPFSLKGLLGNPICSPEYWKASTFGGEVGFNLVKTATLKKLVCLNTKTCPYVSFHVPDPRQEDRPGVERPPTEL
Experimental: as §2, §1

[4] = human COX-2 enzyme, EIA, 15 min pre-incubation at 37° C., read-out: COX-2 IC50 (μM) enzyme

In the case of `COc1ccc2c(c1)c(CC(=O)NCCCCCCCC[N+]13CC[S][Re-]14(=[O])[S]CC[N]4C(=O)C3)c(C)n2C(=O)c1ccc(Cl)cc1` (centres unmarked) [Compound 265], the IC50 [1] is reported as 0.1 µM and the IC50 [2] is reported as 2.1 µM.

Work on `COc1ccc2c(c1)c(CC(=O)NCCCOCCCNC(=O)c1ccc[cH-]1)c(C)n2C(=O)c1ccc(Cl)cc1.[C-]#[O+].[C-]#[O+].[C-]#[O+].[Re+]` [Compound 310] yielded an IC50 [1] of 0.2 µM and an IC50 [2, 4] of over 30 µM.

Compound `[2H]C([2H])([2H])Oc1ccc2c(c1)c(CC(=O)NCCCCCC[N+]13CC[S][Re-]14(=[O])[S]CC[N]4C(=O)C3)c(C)n2C(=O)c1ccc(Cl)cc1` (centres unmarked) [Compound 346] has an IC50 [1] of 0.2 µM and an IC50 [2, 4] of 0.3 µM.

With `COc1ccc2c(c1)c(CC(=O)NCCC(C)(C)CCNC(=O)c1ccc[cH-]1)c(C)n2C(=O)c1ccc(Cl)cc1.[C-]#[O+].[C-]#[O+].[C-]#[O+].[Re+]` [Compound 309] the IC50 [1] was 0.3 µM and the IC50 [2, 4] was 0.5 µM.

In the case of `COc1ccc2c(c1)c(CC(=O)N[C@H](C)CCCCC[N+]13CC[S][Re-]14(=[O])[S]CC[N]4C(=O)C3)c(C)n2C(=O)c1ccc(Cl)cc1` (some centres unmarked) [Compound 328], the IC50 [1] is reported as 0.1 µM and the IC50 [2, 4] is reported as 0.6 µM.

Compound `COc1ccc2c(c1)c(CC(=O)NCCCC[N+]13CC[S][Re-]14(=[O])[S]CC[N]4C(=O)C3)c(C)n2C(=O)c1ccc(Cl)cc1` (centres unmarked) [Compound 261] has an IC50 [1] of 1.8 µM and an IC50 [2, 4] of 0.8 µM.

With `COc1ccc2c(c1)c(CC(=O)NCCC(C)(C)CC[N+]13CC[S][Re-]14(=[O])[S]CC[N]4CC3)c(C)n2C(=O)c1ccc(Cl)cc1` (centres unmarked) [Compound 307] the IC50 [1] was 0.5 µM and the IC50 [2, 4] was over 30 µM.

Work on `CCOC(=O)C1C[S][Re]23(=[O])[S]CC(C(=O)NCCCCCCCNC(=O)Cc4c(C)n(C(=O)c5ccc(Cl)cc5)c5ccc(OC)cc45)[N]2CC[N]13` (centres unmarked) [Compound 182] yielded an IC50 [1] of 0.6 µM and an IC50 [2, 4] of 0.8 µM.

Work on `COc1ccc2c(c1)c(CCNCc1ccccn1)c(C)n2C(=O)c1ccc(Cl)cc1` [Compound 369] yielded an IC50 [3] of over 30000 nM.

With `COc1ccc2c(c1)c(CC(=O)NCCCOCCC[N+]13CC[S][Re-]14(=[O])[S]CC[N]4C(=O)C3)c(C)n2C(=O)c1ccc(Cl)cc1` (centres unmarked) [Compound 266] the IC50 [1] was 0.2 µM and the IC50 [2, 4] was 0.6 µM.

`COc1ccc2c(c1)c(CC(=O)NCCCCC[N+]13CC[S][Re-]14(=[O])[S]CC[N]4C(=O)C3)c(C)n2C(=O)c1ccc(Cl)cc1` (centres unmarked) [Compound 263] showed an IC50 [1] of 0.3 µM and an IC50 [2] of 0.3 µM.

In the case of `CCOC(=O)C1C[S][Re]23(=[O])[S]CC(C(=O)NCCCCCCNC(=O)Cc4c(C)n(C(=O)c5ccc(Cl)cc5)c5ccc(OC)cc45)[N]2CC[N]13` (centres unmarked) [Compound 181], the IC50 [1] is reported as 1.5 µM and the IC50 [2, 4] is reported as 1 µM.

`COc1ccc2c(c1)c(CC(=O)NCCCCCCCCNC(=O)[c-]1cccc1)c(C)n2C(=O)c1ccc(Cl)cc1.[C-]#[O+].[C-]#[O+].[C-]#[O+].[Re+]` [Compound 247] gave an IC50 [1] of 2.6 µM and an IC50 [2, 4] of 0.2 µM.

`COc1ccc2c(c1)c(CC(=O)NCCCCCC[N+]13CC[S][Re-]14(=[O])[S]CC[N]4C(=O)C3)c(C(F)(F)F)n2C(=O)c1ccc(Cl)cc1` (centres unmarked) [Compound 351] was tested, and the IC50 [1] was 0.4 µM and the IC50 [2, 4] was over 30 µM.

For `COc1ccc2c(c1)c(CC(=O)NCCOCCOCCNC(=O)c1ccc[cH-]1)c(C)n2C(=O)c1ccc(Cl)cc1.[C-]#[O+].[C-]#[O+].[C-]#[O+].[Re+]` [Compound 251], the IC50 [1] was over 30 µM and the IC50 [2, 4] was 0.3 µM.

`COc1ccc2c(c1)c(CC(=O)NCCCCCNC(=O)c1ccc[cH-]1)c(C)n2C(=O)c1ccc(Cl)cc1.[C-]#[O+].[C-]#[O+].[C-]#[O+].[Re+]` [Compound 308] was tested, and the IC50 [1] was 0.2 µM and the IC50 [2, 4] was 0.9 µM.

`COc1ccc2c(c1)c(CC(=O)NCCCOCC[N+]13CC[S][Re-]14(=[O])[S]CC[N]4C(=O)C3)c(C)n2C(=O)c1ccc(Cl)cc1` (centres unmarked) [Compound 267] was tested, and the IC50 [1] was 0.3 µM and the IC50 [2, 4] was over 30 µM.

`COc1ccc2c(c1)c(CC(=O)NCCCCCCNC(=O)C[N]1C(=O)C[N]3C(=O)C[N]4C(=O)C[S][Re]143=[O])c(C)n2C(=O)c1ccc(Cl)cc1` [Compound 27] was tested, and the IC50 [1] was 12.7 µM and the IC50 [2, 4] was 0.6 µM.

In the case of `COc1ccc2c(c1)c(CC(=O)NCCOCCOCC[N+]13CC[S][Re-]14(=[O])[S]CC[N]4C(=O)C3)c(C)n2C(=O)c1ccc(Cl)cc1` (centres unmarked) [Compound 269], the IC50 [1] is reported as 0.9 µM and the IC50 [2, 4] is reported as 0.5 µM.

`COc1ccc2c(c1)c(CC(=O)NCCNC(=O)[c-]1cccc1)c(C)n2C(=O)c1ccc(Cl)cc1.[C-]#[O+].[C-]#[O+].[C-]#[O+].[Re+]` [Compound 243] was tested, and the IC50 [1] was 0.7 µM and the IC50 [2, 4] was 0.5 µM.

`COc1ccc2c(c1)c(CC(=O)NCCOCC[N+]13CC[S][Re-]14(=[O])[S]CC[N]4C(=O)C3)c(C)n2C(=O)c1ccc(Cl)cc1` (centres unmarked) [Compound 262] gave an IC50 [1] of 1.7 µM and an IC50 [2] of 0.9 µM.
